Source: US5393740A, “Neurotensin Hexapeptides” (Tsumura & Co., priority 1991, dated 1995)
*1 amine or outer side, *2 acyl side, *3 side chain or, on linkers, in order; H or OH if unused. Where a SMILES comes first, the peptide text is derived from it. [ ]: non-standard residue; d: D form. X2 = CCCCN([C@@H](CCCNC(=N)N)C(=O)[*:2])[*:1]; Leu(ol) = CC(C)C[C@H](N)CO

Key:
thrombin = thrombin (Homo sapiens, UniProt P00734); test: Protease inhibition action (thrombin, synthetic coloring base S-2238); format: biochemical; details: thrombin final conc. 10 U/ml, preincubated at 37° C. for 5 minutes, S-2238 37° C. 15 minutes, 405 nm
Method: Each of peptides Nos. 1, 31 to 34 was mixed at various volume with thrombin (final conc. 10 U/ml), and the resultant mixture was preincubated at 37° C. for 5 minutes. A synthetic coloring base (Test Team^R S-2238 available from Daiichi Kagaku Yakuhin) was added to the above preincubated mixture and was reacted at 37° C. for 15 minutes.
2% citric acid was added to the above mixture to stop the reaction. Hydrolysis was performed using residual thrombin, and free p-nitroaniline removed from the synthetic coloring base was subjected to colorimetric determination at a wavelength of 405 nm, thereby obtaining the inhibition capability with reference to 0.1M tris buffer. On the base of the inhibition capability thus obtained, a concentration of the peptides when each peptide inhibited the activity of thrombin with 50%, i.e. IC50 was calculated.

ddY mice = test: Acute toxicity test; format: in vivo, mouse; details: intravenous injection, 2,000 times (64 μmol/kg) the effective amount
Method: An acute toxicity test of peptides Nos. 1, 31 and 32 of the present invention was performed by using, ddY mice. […] No toxic expression was therefore observed.

ICR mice = test: Anti-shock action (endotoxin-induced lethality); format: in vivo, mouse; details: 32 nmol/kg × 4 intravenously, endotoxin (LPS E. coli 0127B8) 10 mg/kg i.v. after 10 minutes; male ICR mice; control 80
Method: In this experiment, male ICR mice (each group consisted of 10 mice) each having a weight of 25 g to 35 g were used. Each of peptides Nos. 1, 31 and 32 was dissolved in a sodium acetate buffered solution (pH 6.0) added with 1% BSA or in a physiological saline.
An endotoxin to induce a shock was obtained by dissolving Lipopolysaccharide [E. coli; 0127B8 (Difco)] in a physiological saline.
Each of peptialdes Nos. 1, 31 and 32 was intravenously injected at a by dose of 5 ml/kg to each mouse, and the endotoxin with concentration of 10 mg/kg was intravenously injected at a dose of 5 ml/kg after 10 minutes. The lethal rates (%) of these mice within 24 hours were measured. As a control, 5 ml/kg of the sodium acetate buffered solution added with 1% BSA was injected instead of the hexapeptide of the present invention.

Wistar rats = test: Anti-edematous action (freezing-induced vascular cerebral edema); format: in vivo, rat; details: left cerebral cortex, 32 nmol/kg i.v. 10 minutes before and 20 minutes after the freezing, male Wistar rats, control 81.4
Method: In this experiment, 8-week male Wistar rats were used, and peptides Nos. 1, 31 and 32 dissolved in a saline added with 1% BSA were used.
Iron column whose diameter was 5 mm cooled by dryice acetone was placed on the left epidural portion of each rat to cause a vascular cerebral edema. Freezing was performed to form an injured portion after an hour, and the brain of each rat was taken out. The brain was divided into right and left cerebral cortices, and weights of the left cerebral cortices were measured. The left cerebral cortices was dried at 105° C. for 24 hours, and weights of the dried left cerebral cortices were measured to obtain water contents (%). In this operations, the peptides Nos. 1, 31 and 32 were intravenously injected at the concentration shown in Table 6 to each rat 10 minutes before and 20 minutes after the freezing. As a control, 1 ml/kg of the saline added with 1% BSA instead of the peptides was injected into rat according to same procedures as described above.

Hybrid grown-up dogs = test: Anti-DIC action (platelet number after endotoxin); format: in vivo, dog
Method: Hybrid grown-up dogs (each group consisted of six dogs) were used in this experiment. 30 mg/kg of pentobarbital were intravenously injected to anesthetize each dog. Intravenous injection of 32 nmol/kg of each of peptides Nos. 1, 31 and 32 was performed. After 30 minutes, 3 mg/kg of an endotoxin derived from Escherichia Coli were intravenously injected while the artificial respiration was performed with air.
Samples of blood were collecting from each dog immediately before the injection of the peptides and 120 minutes after the injection of the endotoxin.
As a control, a experiment was performed according to same procedure as described above except that the hexapeptides was not injected.
The number of platelets is the number per 1 mm^3 (1 μl) of the blood in Table 7.

Wister rats = test: Anti-allergic action (passive cutaneous anaphylaxis reaction); format: in vivo, rat; details: PCA reaction, 32 nmol g/kg i.v. 10 minutes before provocation, control 188.3 ± 9.71
Method: In this experiment, 6-week, male Wister rats (each group consisted of 10 rats) were used, and the back of these rats were shaved.
An anti-egg albumin rat serum was diluted with a saline to forty-fold of its volume, thereby obtaining an anti-egg albumin rat serum solution. 1 ml of the anti-egg albumin rat serum solution was intradermally injected to both side parts against the median line in the shaved portion, thereby sensitizing passively the rats. After 48 hours, 1 ml of a 0.5% Evans blue solution containing 10 mg of a egg-albumin was intravenously injected to the each rat, thereby provocating a passive cutaneous anaphylaxis (PCA) reaction.
After 30 minutes, the rats were decapitated, thereby subjecting to hemorrhage to death. The skins were peeled from the rats, and a long diameter and a short diameter of a blue stained portions caused by the PCA reaction in each rat were measured, and area of the blue-stained portions were calculated on the base of the obtained data.
In these operations, the of peptides Nos. 1, 31 and 32 were dissolved in a sodium acetate buffered solution containing 1% BSA and was intravenously injected to each rat at 10 minutes before the provocation of the PCA reaction. As a control, the sodium acetate buffer solution containing 1% BSA instead of the peptide solutions was injected according to same procedure as described above.

SD rats = test: Wound healing action (traction tension of skin wound); format: in vivo, rat; details: skin wound stripe, eighth day; 32 nmol/kg i.v. once a day for 8 days; male SD rats; control 456.2 ± 21.6
Text: The male SD rats (each group consisted of 10 rats) were anesthetized with ether and shaved in the back of the each rat, and the anesthetized portion was formed by a length of 30 mm along the median line by using a degreased, sterilized razor blade. The wound was immediately sutured at three equidistant positions, and the stitches were taken out after three days. The rats were subjected to hemorrhage to death in the eighth day, and the skins were peeled from the rats.
A skin stripe having a size of 1 cm×4 cm was formed from a wounded portion of each rat. Both ends of this stripe were set in a wound curing measurement tensile test instrument (TK-251 available from Unicom), and a tensile force (traction tension: g/cm) required to cut the wound portion was measured.
Each hexapeptide compound according to the present invention was dissolved in an acetic acid buffer solution added with 1% BSA and was intravenously injected to each rat for 8 days (once a day) from the date of wound formation. As a control, 1 ml/kg of the sodium acetat buffered solution added with 1% BSA instead of the hexapeptide solutions was injected according to same procedure as described above.

Sprague-Dawley (SD) rats = test: Vascular permeability acceleration suppression action (hot-water leg edema); format: in vivo, rat; details: suppression of rate of increase in leg volume vs control; 1 ml/kg into femoral vein 10 minutes before dipping leg in 58° C. hot water for one minute; male SD rats
Method: After 6-week male Sprague-Dawley (SD) rats (each group consisted of 10 rats) were fed for a week, they were used in this experiment.
The concentrations of samples of the hexapeptides (peptide Nos. 1 to 30) were dissolved by an acetic acid buffer solution added with a 1% bovine serum albumin (BSA).
An aliqrot of 1 ml/kg of each of the peptides Nos. 1 to 30 was injected into the femoral vein of the right leg of each rat anesthetized with 50 mg/kg of Nembutal Sodium (available from Dainippon Pharmaceutical Co., Ltd.). After 10 minutes, the nontreated left leg of the rat was dipped in 58° C. hot water for one minute to form an edema. Each rat was left at room temperature for 29 minutes, and the volumes of both legs of each rat were measured. As a control, the experiment following the same procedure as describe above was performed except that 1 ml/kg of a sodium acetate buffered solution containing 1% BSA instead of the hexapeptide of the present invention was injected in rats.
A rate (%) of increase in leg volume was calculated from the result of the above measurement by equation (1) below: [formula]
The rates were compared with that of the control.
- X: rate of increase in leg volume (%) of the present invention.
Xo: rate of increase in leg volume (%) of the control

| Compound | IC50 (thrombin) | acute toxicity (death) (ddY mice) | other results |
| --- | --- | --- | --- |
| CC[C@H](C)[C@H](NC(=O)[C@H](Cc1ccc(O)cc1)NC(=O)[C@@H]1CCCN1C(=O)[C@H](CCCNC(=N)N)NC(=O)CCCCNC(=N)N)C(=O)N[C@@H](CC(C)C)C(=O)O [Peptide No. 1, Desamino-Arg--Arg--Pro--Tyr--Ile--Leu--OH] | 2500 nM | No mice were dead |  |
| CC[C@H](C)[C@H](NC(=O)[C@H](Cc1ccc(O)cc1)NC(=O)[C@@H]1CCCN1C(=O)[C@H](CCCNC(=N)N)NC(=O)[C@H](CCCNC(=N)N)NC(C)=O)C(=O)N[C@@H](CC(C)C)C(N)=O [Peptide No. 32, N-acetyl--Arg--Arg--Pro--Tyr--Ile--Leu--NH2] | 2200 nM | No mice were dead | Lethal rate within 24 hours (%) (ICR mice): 20%; Water Content (%) (Wistar rats): 80.6%; Average Number of Platelets 120 Minutes after Venous Injection of Endotoxin (Hybrid grown-up dogs; 32 nmol/kg i.v. 30 minutes before 3 mg/kg E. coli endotoxin i.v., control 43 × 10^4): 58 × 10^4 per 1 mm^3 (1 μl) of the blood; Average Number of Platelets Immediately before Injection Endotoxin (Hybrid grown-up dogs; 32 nmol/kg i.v., baseline sample, control 72 × 10^4): 71 × 10^4 per 1 mm^3 (1 μl) of the blood; Area of blue-stained portion (mm^2) (Wister rats): 112.8 ± 4.83 mm^2; Traction Tension (SD rats): 547.0 ± 32.3 g/cm |
| Desamino-Arg-D-Lys--Pro--Trp--Ile-Leucinol [Peptide No. 23] |  |  | Suppression Rate (%) (Sprague-Dawley (SD) rats): 20.8% |
| CCCCN[C@@H](CCCNC(=N)N)C(=O)N[C@@H](CCCNC(=N)N)C(=O)N1CCC[C@H]1C(=O)N[C@@H](Cc1ccc(O)cc1)C(=O)N[C@H](C(=O)N[C@H](CO)CC(C)C)[C@@H](C)CC [Peptide No. 33, N-buthyl--Arg--Arg--Pro--Tyr--Ile--Leucinol] (H-[X2]RPYI[Leu(ol)]) | 2300 nM |  |  |
| CC[C@H](C)[C@H](NC(=O)[C@H](Cc1ccc(O)cc1)NC(=O)[C@@H]1CCCN1C(=O)[C@H](CCCNC(=N)N)NC(=O)[C@H](CCCNC(=N)N)NC(C)=O)C(=O)N[C@H](CO)CC(C)C [Peptide No. 31, N-acetyl--Arg--Arg--Pro--Tyr--Ile-Leucinol] | 2300 nM | No mice were dead |  |
